Patent publication US9630941B2 (priority 2008, dated 2017)

Experiments:
[1] = Bioreversion: plasma stability, porcine plasma; type: in vitro ADME
[2] = Aqueous solubility, pH dependent; type: physicochemical
[3] = Control (IPBS) stability for the buccal homogenate study; type: physicochemical
Description: (§1) b. Porcine Buccal Tissue Homogenate Stability
(§2) Protein Concentration 2 mg/ml

[4] = Porcine buccal tissue homogenate stability; type: in vitro ADME; conditions: protein concentration 2 mg/ml
Description: as §1, §2

[5] = Chemical stability pH dependent at 25° C.; type: physicochemical
Description: B. Chemical Stability pH Dependent at 25° C.

[6] = Thermal stability, 120° C. for 10 min; type: physicochemical; conditions: for Drug remaining (%): % of initial
Description: C. Thermal Stability—120° C. for 10 min.

CCCCCc1cc(OC(=O)CNC)c2c(c1)OC(C)(C)[C@@H]1CCC(C)=C[C@@H]21 [THC-Sarcosinate (7), Δ^9-THC-sarcosinate]
K [1]: 63.16 ± 10.44 ×10^−2 min^−1
T1/2 [1]: 1.11 ± 0.18 min
Aqueous Solubility ([2]; pH 1.2): 101.38 ± 29.22 µg/mL
Aqueous Solubility ([2]; pH 1.2, listed as THC-Sarcosine): 263.16 ± 75.84 µM
Aqueous Solubility ([2]; pH 2): 151.75 ± 9.33 µg/mL
Aqueous Solubility ([2]; pH 2, listed as THC-Sarcosine): 393.89 ± 24.21 µM
Aqueous Solubility ([2]; pH 3): 96.52 ± 2.84 µg/mL
Aqueous Solubility ([2]; pH 3, listed as THC-Sarcosine): 250.54 ± 7.38 µM
Aqueous Solubility ([2]; pH 4): 50.74 ± 1.98 µg/mL
Aqueous Solubility ([2]; pH 4, listed as THC-Sarcosine): 131.70 ± 5.13 µM
Aqueous Solubility ([2]; pH 5): 7.14 ± 0.72 µg/mL
Aqueous Solubility ([2]; pH 5, listed as THC-Sarcosine): 18.54 ± 1.87 µM
Aqueous Solubility ([2]; pH 6): 0.53 ± 0.07 µg/mL
Aqueous Solubility ([2]; pH 6, listed as THC-Sarcosine): 1.38 ± 0.18 µM
K [3]: 23.47 ± 1.60 ×10^−3 min^−1
K [4]: 37.36 ± 3.87 ×10^−3 min^−1
First order rate constant ([5]; Buffer pH 5.0, 25° C.): 38.35 ± 4.32 ×10^−3 h^−1
First order rate constant ([5]; Buffer pH 7.0, 25° C.): 605.61 ± 125.14 ×10^−3 h^−1
First order rate constant ([5]; Buffer pH 9.0, 25° C.): 1209.25 ± 203.05 ×10^−3 h^−1
First order rate constant ([5]; Water, 25° C.): 25.45 ± 21.99 ×10^−3 h^−1
Drug loading (%) [6]: 79.82 ± 0.85%
CBN content of the sample after heating ([6]; 120° C. for 10 min): 33.83 ± 0.97 µg
Drug remaining ([6]; 120° C. for 10 min): 841.38 ± 40.18 µg
THC content of the sample after heating ([6]; 120° C. for 10 min): 54.53 ± 3.35 µg
Drug remaining (%) ([6]; 120° C. for 10 min): (70.30 ± 4.10) %
CBN content of the sample, initial ([6]; before heating): 40.05 ± 3.45 µg
Initial, μg (drug itself) ([6]; before heating): 1197.24 ± 12.69 µg
THC content of the sample, initial ([6]; before heating): 26.68 ± 3.80 µg

CCCCCc1cc(OC(=O)[C@@H](N)CCC(N)=O)c2c(c1)OC(C)(C)[C@@H]1CCC(C)=C[C@@H]21 [THC-Glutaminate (9), Δ^9-THC-glutaminate]
K [1]: 53.41 ± 5.84 ×10^−2 min^−1
T1/2 [1]: 1.31 ± 0.14 min
Aqueous Solubility ([2]; H20): 1.61 ± 0.76 µg/mL
Aqueous Solubility ([2]; Water): 3.63 ± 1.72 µM
Aqueous Solubility ([2]; pH 1.2): 59.55 ± 0.02 µg/mL
Aqueous Solubility ([2]; pH 1.2, listed as THC-Glutamine): 134.25 ± 0.05 µM
Aqueous Solubility ([2]; pH 2): 162.82 ± 14.39 µg/mL
Aqueous Solubility ([2]; pH 2, listed as THC-Glutamine): 367.06 ± 32.44 µM
Aqueous Solubility ([2]; pH 3): 46.29 ± 1.13 µg/mL
Aqueous Solubility ([2]; pH 3, listed as THC-Glutamine): 104.36 ± 2.55 µM
Aqueous Solubility ([2]; pH 4): 22.24 ± 2.20 µg/mL
Aqueous Solubility ([2]; pH 4, listed as THC-Glutamine): 50.13 ± 4.97 µM
Aqueous Solubility ([2]; pH 5): 5.76 ± 0.02 µg/mL
Aqueous Solubility ([2]; pH 5, listed as THC-Glutamine): 12.99 ± 0.04 µM
Aqueous Solubility ([2]; pH 6): 2.15 ± 0.32 µg/mL
Aqueous Solubility ([2]; pH 6, listed as THC-Glutamine): 4.84 ± 0.72 µM
Aqueous Solubility ([2]; pH 7): 0.52 ± 0.06 µg/mL
Aqueous Solubility ([2]; pH 7, listed as THC-Glutamine): 1.18 ± 0.14 µM
Aqueous Solubility ([2]; pH 8): 0.34 ± 0.33 µg/mL
Aqueous Solubility ([2]; pH 8, listed as THC-Glutamine): 0.76 ± 0.74 µM
Aqueous Solubility ([2]; pH 9): 0.16 ± 0.02 µg/mL
Aqueous Solubility ([2]; pH 9, listed as THC-Glutamine): 0.35 ± 0.04 µM
K [3]: 26.30 ± 0.14 ×10^−3 min^−1
K [4]: 40.41 ± 3.30 ×10^−3 min^−1
T1/2 [4]: 17.21 ± 1.40 min
First order rate constant ([5]; Buffer pH 5.0, 25° C.): 70.23 ± 0.92 ×10^−3 h^−1
First order rate constant ([5]; Buffer pH 7.0, 25° C.): 153.42 ± 4.26 ×10^−3 h^−1
First order rate constant ([5]; Buffer pH 9.0, 25° C.): 756.35 ± 106.61 ×10^−3 h^−1
First order rate constant ([5]; Water, 25° C.): 32.72 ± 15.19 ×10^−3 h^−1
Drug loading (%) [6]: 63.41 ± 2.57%
Drug remaining ([6]; 120° C. for 10 min): 721.31 ± 73.76 µg
Drug remaining (%) ([6]; 120° C. for 10 min): (75.75 ± 4.69) %
Initial, μg (drug itself) ([6]; before heating): 951.08 ± 38.55 µg
